Source: PubChem BioAssay (NCI)
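Results reflect a 48-hour exposure of cells in 96-well plates to compound at five concentrations. GI50 is the concentration that inhibits growth by half. TGI is the concentration that stops growth completely.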

Key:
Experiment in all cases: growth of human tumour cells (NCI), 48 h
[1] = test system: SR leukemia
[2] = test system: U251 CNS
[3] = test system: HOP-62 NSCLC
[4] = test system: OVCAR-3 ovarian
[5] = test system: COLO 205 colon
[6] = test system: EKVX NSCLC
[7] = test system: HCT-15 colon
[8] = test system: SF-268 CNS
[9] = test system: SNB-19 CNS
[10] = test system: MDA-MB-231 breast

O=C(Nc1c(Cl)cc([N+](=O)[O-])cc1Cl)C(=O)C(C(=O)c1ccncc1)C1OC(=O)c2ccccc21 (stereo not drawn)
TGI [1]: > 100 µM | TGI [2]: > 100 µM | TGI [3]: > 100 µM | TGI [4]: > 100 µM | TGI [5]: > 100 µM | TGI [6]: > 100 µM | TGI [7]: > 100 µM | TGI [8]: > 100 µM | TGI [9]: > 100 µM

Nc1cccc(C(=O)/C=C/c2ccccc2O)c1
TGI [1]: > 100 µM | TGI [2]: > 100 µM | TGI [3]: > 100 µM | TGI [4]: > 100 µM | TGI [5]: > 100 µM | TGI [6]: > 100 µM | TGI [7]: > 100 µM | TGI [8]: > 100 µM | TGI [9]: > 100 µM

NCC[PH+](c1ccccc1)c1ccccc1.NCC[PH+](c1ccccc1)c1ccccc1.[Cl-].[Pt+4]
GI50 [1]: 29.7 µM | TGI [1]: > 100 µM | GI50 [2]: 39.3 µM | TGI [2]: > 100 µM | GI50 [3]: > 100 µM | TGI [3]: > 100 µM | GI50 [4]: > 100 µM | TGI [4]: > 100 µM | GI50 [5]: > 100 µM | TGI [5]: > 100 µM | GI50 [6]: > 100 µM | TGI [6]: > 100 µM | GI50 [10]: > 100 µM | TGI [10]: > 100 µM | GI50 [7]: > 100 µM | TGI [7]: > 100 µM | GI50 [8]: > 100 µM | TGI [8]: > 100 µM | GI50 [9]: 46.1 µM | TGI [9]: > 100 µM

Cn1cc(C2=C(c3cccc([N+](=O)[O-])c3)C(=O)NC2=O)c2ccccc21
GI50 [1]: 7 µM | TGI [1]: > 25 µM | GI50 [2]: 5.9 µM | TGI [2]: > 25 µM | GI50 [3]: 7.47 µM | TGI [3]: > 25 µM | GI50 [4]: 5.33 µM | TGI [4]: > 22 µM | GI50 [5]: 8.32 µM | TGI [5]: > 25 µM | GI50 [10]: 6.42 µM | TGI [10]: > 25 µM | GI50 [7]: 7.97 µM | TGI [7]: > 25 µM | GI50 [8]: 11.8 µM | TGI [8]: > 25 µM | GI50 [9]: 19.6 µM | TGI [9]: > 25 µM

O=C(/C=C/c1ccccn1)c1ccccc1
GI50 [1]: 1.96 µM | TGI [1]: 14.1 µM | GI50 [2]: 1.94 µM | TGI [2]: 5.43 µM | GI50 [3]: 10.2 µM | TGI [3]: 22 µM | GI50 [4]: 9.5 µM | TGI [4]: 21.4 µM | GI50 [5]: 4.04 µM | TGI [5]: 14.6 µM | GI50 [6]: 15.4 µM | TGI [6]: 31.2 µM | GI50 [10]: 9.92 µM | TGI [10]: 23.8 µM | GI50 [7]: 2.66 µM | TGI [7]: 12.9 µM | GI50 [8]: 19.4 µM | TGI [8]: 36.4 µM | GI50 [9]: 12 µM | TGI [9]: 26.7 µM

CN(C)CN(C)c1nc(N(C)C)nc(N(C)C)n1
TGI [1]: > 100 µM | TGI [2]: > 100 µM | TGI [3]: > 100 µM | TGI [4]: > 100 µM | TGI [5]: > 100 µM | TGI [6]: > 100 µM | TGI [7]: > 100 µM | TGI [8]: > 100 µM | TGI [9]: > 100 µM

O=[N+]([O-])/C(=C/C=C/c1ccccc1)c1ccccc1
GI50 [1]: 1.01 µM | TGI [1]: 4.05 µM | GI50 [2]: 1.67 µM | TGI [2]: 3.17 µM | GI50 [3]: 7.29 µM | TGI [3]: 21.4 µM | GI50 [4]: 1.85 µM | TGI [4]: 3.29 µM | GI50 [5]: 1.83 µM | TGI [5]: 3.35 µM | GI50 [6]: 6.03 µM | TGI [6]: 16.3 µM | GI50 [10]: 1.92 µM | TGI [10]: 4.28 µM | GI50 [7]: 1.86 µM | TGI [7]: 4.22 µM | GI50 [8]: 2.96 µM | TGI [8]: 8.93 µM | GI50 [9]: 3.33 µM | TGI [9]: 10.6 µM

Cc1c(C(=O)/C=C/c2ccc3c(c2)OCO3)[n+](=O)c2ccccc2n1[O-]
TGI [1]: > 100 µM | TGI [2]: > 100 µM | TGI [3]: > 100 µM | TGI [4]: 83.3 µM | TGI [5]: 78.7 µM | TGI [6]: 69.3 µM | TGI [8]: > 100 µM | TGI [9]: > 100 µM
